Usually EC50 stands for the midpoint of the concentration-response curve.

The target in this assay is T1, dOR35a (Drosophila melanogaster, UniProt Q9V3Q2).
T1 construct: gene Or35a; pIB-DmOr35a transiently expressed in Sf9 cells
T1 sequence (Q9V3Q2 1-409): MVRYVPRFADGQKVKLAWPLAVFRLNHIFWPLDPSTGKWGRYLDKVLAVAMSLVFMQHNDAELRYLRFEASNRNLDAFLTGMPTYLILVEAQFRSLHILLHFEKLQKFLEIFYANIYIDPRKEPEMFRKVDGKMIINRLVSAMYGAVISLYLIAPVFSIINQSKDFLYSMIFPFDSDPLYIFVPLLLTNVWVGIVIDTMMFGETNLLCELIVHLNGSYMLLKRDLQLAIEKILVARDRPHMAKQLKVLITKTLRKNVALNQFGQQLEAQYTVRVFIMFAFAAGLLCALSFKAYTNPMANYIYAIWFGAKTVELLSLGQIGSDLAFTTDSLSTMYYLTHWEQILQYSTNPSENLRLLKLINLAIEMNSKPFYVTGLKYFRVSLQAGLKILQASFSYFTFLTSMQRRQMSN
The assay is described as follows: Fluo4 calcium imaging of receptor transiently expressed in Sf9 cells, concentration-response. Format: cell-based.

For the compound `CCCCCCCCO` [1-octanol], the 50% effective concentration (EC50) was found to be 22.7 nM. For `C=CC(O)CCCCC` (centres unmarked) [1-octen-3-ol], the half-maximal effective concentration (EC50) came out at 3460 nM.

The values above are taken from publication PMC2712691, “Bio-Benchmarking of Electronic Nose Sensors” (PLoS ONE, 2009).
